According to patent publication US8822467B2 (Ligand Pharmaceuticals Inc., priority 2009, dated 2014):

biological target: T1, human CRTH2 (Homo sapiens, UniProt Q9Y5Y4); experiment: [35S]GTPγS binding assay (SPA) on membranes from CHO-K1 cells stably expressing human CRTH2, stimulated with 60 nM DHK-PGD2; type: biochemical; conditions: potency class symbols; Table 2; read-out: CRTH2 hGTPγS IC50
T1 construct: expressed in transfected cells
T1 sequence (Q9Y5Y4 1-395): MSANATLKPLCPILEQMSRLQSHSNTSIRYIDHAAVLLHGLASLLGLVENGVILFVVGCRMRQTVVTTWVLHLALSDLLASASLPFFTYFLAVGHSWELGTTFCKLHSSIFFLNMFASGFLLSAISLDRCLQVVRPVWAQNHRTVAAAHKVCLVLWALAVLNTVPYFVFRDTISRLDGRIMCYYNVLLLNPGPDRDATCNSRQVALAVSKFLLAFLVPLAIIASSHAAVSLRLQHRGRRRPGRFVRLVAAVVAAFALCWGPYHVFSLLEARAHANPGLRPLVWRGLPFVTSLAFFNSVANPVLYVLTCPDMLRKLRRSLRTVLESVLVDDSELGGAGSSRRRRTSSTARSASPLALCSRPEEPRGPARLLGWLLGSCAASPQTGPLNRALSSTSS
How it was run: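 Membranes (4 μg) from CHO-K1 cells stably expressing human CRTH2 were incubated with compounds, 60 nM DHK-PGD2, 500 pM [35S]GTPγS and 10 μM GDP plus WGA SPA beads. Buffer was 20 mM HEPES pH 7.4, 10 mM MgCl2, 300 mM NaCl, 0.2% BSA, with 1% DMSO. Incubation ran 2 h at ambient temperature, with SPA scintillation read 4 h after centrifugation.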

`CN(Cc1ccc(OCC(=O)O)c(-c2ccc(S(C)(=O)=O)cc2)c1)S(=O)(=O)c1ccc(F)cc1` [Example 124, 2-(4-methylsulfonylphenyl)-4-((4-fluoro-N-methylphenylsulfonamido)methyl)phenoxyacetic acid] and `CN(Cc1ccc(OCC(=O)O)c(-c2cccc(C(F)(F)F)c2)c1)S(=O)(=O)c1ccc(S(C)(=O)=O)cc1` [Example 134, 2-(3-trifluoromethylphenyl)-4-((4-methylsulfonyl-N-methylphenylsulfonamido)methyl)phenoxyacetic acid] fall in the same range of IC50: 100 to 1000 nM for the first, 100 to 1000 nM for the second.

`CN(Cc1ccc(OCC(=O)O)c(-c2cccc(OC(F)(F)F)c2)c1)S(=O)(=O)c1ccc(F)cc1` [Example 125, 2-(3-trifluoromethoxyphenyl)-4-((4-fluoro-N-methylphenylsulfonamido)methyl)phenoxyacetic acid] and `COc1cccc(-c2cc(CN(C)S(=O)(=O)c3ccc(F)cc3)ccc2OCC(=O)O)c1` [Example 133, 2-(3-methoxyphenyl)-4-((4-fluoro-N-methylphenylsulfonamido)methyl)phenoxyacetic acid] fall in the same range of IC50: 100 to 1000 nM for the first, 100 to 1000 nM for the second.

Compared with `CN(Cc1ccc(OCC(=O)O)c(-c2cccc(C(F)(F)F)c2)c1)S(=O)(=O)c1cccc(F)c1` [Example 126, 2-(3-trifluoromethylphenyl)-4-((3-fluoro-N-methylphenylsulfonamido)methyl)phenoxyacetic acid], `COc1cccc(S(=O)(=O)N(C)Cc2ccc(OCC(=O)O)c(-c3cccc(C(F)(F)F)c3)c2)c1` [Example 153, 2-(3-trifluoromethylphenyl)-4-((3-methoxy-N-methylphenylsulfonamido)methyl)phenoxyacetic acid] is higher in IC50: 100 to 1000 nM for the first, 1000 to 10000 nM for the second.

`CN(Cc1ccc(OCC(=O)O)c(-c2cccc(C(F)(F)F)n2)c1)S(=O)(=O)c1ccc(F)cc1` [Example 127, 2-(6-trifluoromethyl-2-pyridinyl)-4-((4-fluoro-N-methylphenylsulfonamido)methyl)phenoxyacetic acid] and `CN(Cc1ccc(OCC(=O)O)c(-c2cccc(F)c2)c1)S(=O)(=O)c1ccc(F)cc1` [Example 130, 2-(3-fluorophenyl)-4-((4-fluoro-N-methylphenylsulfonamido)methyl)phenoxyacetic acid] fall in the same range of IC50: 100 to 1000 nM for the first, 100 to 1000 nM for the second.

`CN(Cc1ccc(OCC(=O)O)c(-c2ccn3ccnc3c2)c1)S(=O)(=O)c1ccc(F)cc1` [Example 128, 2-(imidazo[1,2-a]pyridin-7-yl)-4-((4-fluoro-N-methylphenylsulfonamido)methyl)phenoxyacetic acid] and `CN(Cc1ccc(OCC(=O)O)c(-c2cccc(O)c2)c1)S(=O)(=O)c1ccc(F)cc1` [Example 132, 2-(3-hydroxyphenyl)-4-((4-fluoro-N-methylphenylsulfonamido)methyl)phenoxyacetic acid] fall in the same range of IC50: 100 to 1000 nM for the first, 100 to 1000 nM for the second.

Compared with `Cc1nnc(-c2cccc(-c3cc(CN(C)S(=O)(=O)c4ccc(F)cc4)ccc3OCC(=O)O)c2)o1` [Example 129, 2-(3-(5-methyl-1,3,4-oxadiazol-2-yl)phenyl)-4-((4-fluoro-N-methylphenylsulfonamido)methyl)phenoxyacetic acid], `Cc1cccc(-c2cc(CN(C)S(=O)(=O)c3ccc(F)cc3)ccc2OCC(=O)O)c1` [Example 156, 2-(3-methylphenyl)-4-((4-fluoro-N-methylphenylsulfonamido)methyl)phenoxyacetic acid] is higher in IC50: 100 to 1000 nM for the first, 1000 to 10000 nM for the second. The first is the more potent here.

`CN(Cc1ccc(OCC(=O)O)c(-c2cccc(C(F)(F)F)c2)c1)S(=O)(=O)c1ccccc1` [Example 131, 2-(3-trifluoromethylphenyl)-4-((N-methylphenylsulfonamido)methyl)phenoxyacetic acid] and `CN(Cc1ccc(OCC(=O)O)c(-c2cccc(C(F)(F)F)c2)c1)S(=O)(=O)c1cccnc1` [Example 149, 2-(3-trifluoromethylphenyl)-4-((N-methylpyridine-3-sulfonamido)methyl)phenoxyacetic acid] fall in the same range of IC50: 100 to 1000 nM for the first, 100 to 1000 nM for the second.

`CNC(=O)c1cccc(-c2cc(CN(C)S(=O)(=O)c3ccc(F)cc3)ccc2OCC(=O)O)c1` [Example 135, 2-(3-N-methylaminocarbonylphenyl)-4-((4-fluoro-N-methylphenylsulfonamido)methyl)phenoxyacetic acid] and `COC(=O)c1cccc(-c2cc(CN(C)S(=O)(=O)c3ccc(F)cc3)ccc2OCC(=O)O)c1` [Example 141, 2-(3-methoxycarbonylphenyl)-4-((4-fluoro-N-methylphenylsulfonamido)methyl)phenoxyacetic acid] fall in the same range of IC50: 100 to 1000 nM for the first, 100 to 1000 nM for the second.

`CN(Cc1cc(F)c(OCC(=O)O)c(-c2cccc(C#N)c2)c1)S(=O)(=O)c1ccc(F)cc1` [Example 136, 2-(3-cyanophenyl)-4-((4-fluoro-N-methylphenylsulfonamido)methyl)-6-fluorophenoxyacetic acid] and `CN(Cc1cc(F)c(OCC(=O)O)c(-c2cc(F)cc(F)c2)c1)S(=O)(=O)c1ccc(F)cc1` [Example 139, 2-(3,5-difluorophenyl)-4-((4-fluoro-N-methylphenylsulfonamido)methyl)-6-fluorophenoxyacetic acid] fall in the same range of IC50: 100 to 1000 nM for the first, 100 to 1000 nM for the second.

First: CN(Cc1ccc(OCC(=O)O)c(-c2cccc(C(F)(F)F)c2)c1)S(=O)(=O)c1cc(F)cc(F)c1 [Example 137, 2-(3-trifluoromethylphenyl)-4-((3,5-difluoro-N-methylphenylsulfonamido)methyl)phenoxyacetic acid]
Second: CC(C)N(Cc1ccc(OCC(=O)O)c(-c2cccc(C(F)(F)F)c2)c1)S(=O)(=O)c1ccc(F)c(F)c1 [Example 152, 2-(3-trifluoromethylphenyl)-4-((3,4-difluoro-N-isopropylphenylsulfonamido)methyl)phenoxyacetic acid]
The IC50 of the first is lower: 100 to 1000 nM for the first, 1000 to 10000 nM for the second.

`CN(C)C(=O)c1cccc(-c2cc(CN(C)S(=O)(=O)c3ccc(F)cc3)ccc2OCC(=O)O)c1` [Example 138, 2-(3-dimethylaminocarbonylphenyl)-4-((4-fluoro-N-methylphenylsulfonamido)methyl)phenoxyacetic acid] and `CN(Cc1ccc(OCC(=O)O)c(-c2cccc(Br)c2)c1)S(=O)(=O)c1ccc(F)cc1` [Example 142, 2-(3-bromophenyl)-4-((4-fluoro-N-methylphenylsulfonamido)methyl)phenoxyacetic acid] fall in the same range of IC50: 100 to 1000 nM for the first, 100 to 1000 nM for the second.

`CCN(Cc1ccc(OCC(=O)O)c(-c2cccc(C(F)(F)F)c2)c1)S(=O)(=O)c1ccc(F)cc1` [Example 140, 2-(3-trifluoromethylphenyl)-4-((4-fluoro-N-ethylphenylsulfonamido)methyl)phenoxyacetic acid] and `COc1ccccc1S(=O)(=O)N(C)Cc1ccc(OCC(=O)O)c(-c2cccc(C(F)(F)F)c2)c1` [Example 146, 2-(3-trifluoromethylphenyl)-4-((2-methoxy-N-methylphenylsulfonamido)methyl)phenoxyacetic acid] fall in the same range of IC50: 100 to 1000 nM for the first, 100 to 1000 nM for the second.

`CN(Cc1ccc(OCC(=O)O)c(-c2cccc(C(F)(F)F)c2)c1)S(=O)(=O)c1cccc2cccnc12` [Example 143, 2-(3-trifluoromethylphenyl)-4-((N-methylquinoline-8-sulfonamido)methyl)phenoxyacetic acid] and `CN(Cc1ccc(OCC(=O)O)c(-c2cccc(C(F)(F)F)c2)c1)S(=O)(=O)c1cccc2ccccc12` [Example 145, 2-(3-trifluoromethylphenyl)-4-((N-methylnaphthalene-1-sulfonamido)methyl)phenoxyacetic acid] fall in the same range of IC50: 100 to 1000 nM for the first, 100 to 1000 nM for the second.

First: CN(Cc1ccc(OCC(=O)O)c(-c2ccc(F)c(F)c2)c1)S(=O)(=O)c1ccc(F)cc1 [Example 144, 2-(3,4-difluorophenyl)-4-((4-fluoro-N-methylphenylsulfonamido)methyl)phenoxyacetic acid]
Second: CN(Cc1ccc(OCC(=O)O)c(-c2ccc(F)c(F)c2)c1)S(=O)(=O)c1ccccc1 [Example 154, 2-(3,4-difluorophenyl)-4-((N-methylphenylsulfonamido)methyl)phenoxyacetic acid]
The IC50 of the first is lower: 100 to 1000 nM for the first, 1000 to 10000 nM for the second. The first is the more potent here.

Compared with `CN(Cc1ccc(OCC(=O)O)c(-c2cccnc2)c1)S(=O)(=O)c1ccc(F)cc1` [Example 147, 2-(3-pyridinyl)-4-((4-fluoro-N-methylphenylsulfonamido)methyl)phenoxyacetic acid], `CN(Cc1ccc(OCC(=O)O)c(-c2cnccn2)c1)S(=O)(=O)c1ccc(F)cc1` [Example 155, 2-(pyrazinyl)-4-((4-fluoro-N-methylphenylsulfonamido)methyl)phenoxyacetic acid] is higher in IC50: 100 to 1000 nM for the first, 1000 to 10000 nM for the second. The first is the more potent here.

First: CN(Cc1ccc(OCC(=O)O)c(-c2cccc(C(F)(F)F)c2)c1)S(=O)(=O)c1ccc2ccccc2c1 [Example 148, 2-(3-trifluoromethylphenyl)-4-((N-methylnaphthalene-2-sulfonamido)methyl)phenoxyacetic acid]
Second: COc1cccc(-c2cc(CN(C)S(=O)(=O)c3ccccc3)ccc2OCC(=O)O)c1 [Example 151, 2-(3-methoxyphenyl)-4-((-N-methylphenylsulfonamido)methyl)phenoxyacetic acid]
The IC50 of the first is lower: 100 to 1000 nM for the first, 1000 to 10000 nM for the second.

Work on `CN(Cc1ccc(OCC(=O)O)c(-c2cc(F)cc(Cl)c2)c1)S(=O)(=O)c1ccccc1` [Example 150, 2-(3-chloro-5-fluorophenyl)-4-((-N-methylphenylsulfonamido)methyl)phenoxyacetic acid] yielded an IC50 of 100 to 1000 nM.
